Measured values: patent publication US7153869B2, “Substituted amino acids as erythropoietin mimetics” (priority 1998, dated 2006)
Where two headings read alike, the source gives them in different places.

Target: T1, EBP-Ig (N-terminal 225 amino acids of the human EPO receptor joined to an Ig heavy chain) (Homo sapiens, UniProt P19235)
T1 construct: Ig heavy chain (fusion partner); made in house; host or cells: NSO cells (secreted into conditioned media)
T1 sequence (P19235 25-250 limits assumed): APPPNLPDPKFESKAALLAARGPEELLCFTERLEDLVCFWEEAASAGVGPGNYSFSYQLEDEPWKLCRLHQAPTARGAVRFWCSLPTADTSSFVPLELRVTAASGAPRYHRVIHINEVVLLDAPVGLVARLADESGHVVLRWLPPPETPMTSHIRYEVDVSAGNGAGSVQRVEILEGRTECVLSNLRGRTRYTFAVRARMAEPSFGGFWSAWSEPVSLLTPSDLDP
Assay: Inhibition of [125I]EPO binding to immobilized EBP-Ig (EPO binding protein-Ig), scintillation Flash plate competition assay
Settings: for IC30 μM (Inhibition of EPO binding to EBP-Ig): 0–500 μM test compound; for % inh @ 50 μM (Inhibition of EPO binding to EBP-Ig): 50 μM test compound, average % inhibition
Text: The interaction of biotin and streptavidin is frequently employed to capture and effectively immobilize reagents useful in assay protocols and has been employed here as a simple method to capture and immobilize EBP-Ig. EBP-Ig is initially randomly modified with an amine reactive derivative of biotin to produce biotinylated-EBP-Ig. Use of streptavidin coated plates allows the capture of the biotinylated EBP-Ig on the surface of a scintillant impregnated coated well (Flash plates, NEN-DuPont). […] The amount of light produced was quantified to estimate the amount of ligand binding. The specific assay format was suitable for the multi-well plate capacity of a Packard TopCount Microplate Scintillation counter.
Biotinylated EBP-Ig was prepared as follows. EBP-Ig (3 mL, OD280 2.9) was exchanged into 50 mM sodium bicarbonate, pH 8.5 using a Centriprep 10 ultrafiltration device. The final volume of the exchanged protein was 1.2 mL (OD280 2.6, representing about 2 mg total protein). 10 μL of a 4 mg/ml solution of NHS-LC-Biotin (Pierce) was added and the reaction mixture placed on ice in the dark for two hours. Unreacted biotin was removed by exchange of the reaction buffer into PBS in a Centriprep 10 device and the protein reagent aliquoted and stored at −70° C.
All wells were adjusted to a final DMSO concentration of 5%. […] After all additions were made, the plate was covered with an adhesive top seal and placed in the dark at room temperature overnight. The next day all liquid was aspirated from the wells to limit analyte dependent quench of the signal, and the plates were counted on a Packard TOPCOUNT Microplate Scintillation Counter. […] Corrected total binding (CTB) was calculated as: TB−NSB=CTB. […] Table 1 lists the average % inhibition, and if determined the IC50 and IC30 values for compounds of Formula I, where the compound numbers refer to the compounds in the tables accompanying the preparative examples.

[1] = read-out: % inh @ 50 μM (Inhibition of EPO binding to EBP-Ig)
[2] = read-out: IC50, μM (Inhibition of EPO binding to EBP-Ig), 0.5 nM [125I]EPO, concentration reducing corrected total binding to 50%

COC(=O)C(CCCCN)N(C/C=C/c1cccc(Oc2ccc(C(C)(C)C)cc2)c1)Cc1cccc(OCc2ccccc2)c1 (centres unmarked) [compound 139]
IC50: 10 µM
IC30 μM (Inhibition of EPO binding to EBP-Ig) (0.5 nM [125I]EPO): 2 µM
inhibition at 50 µM [1]: 46%

Cc1ccc(C(=O)Nc2cccc(CN(Cc3cccc(Oc4ccccc4)c3)C(CCC(=O)O)C(=O)NCCOCCOCCNC(=O)C(CCC(=O)O)N(Cc3cccc(NC(=O)c4ccc(C)cc4)c3)Cc3cccc(Oc4ccccc4)c3)c2)cc1 (centres unmarked) [compound 249]
IC30 μM (Inhibition of EPO binding to EBP-Ig) (0.5 nM [125I]EPO): 7 µM
% inh @ 50 μM (Inhibition of EPO binding to EBP-Ig) (0.5 nM [125I]EPO): 72%
EPO/EBP-Ig % inh @ 50 μM (Table 11, 50 μM): 72%
IC50 [2]: 10 µM

NC(=O)CCC(C(=O)O)N(CC=Cc1cccs1)CC=Cc1cccs1 (centres unmarked) [compound 55]
EPO/EBP-Ig % inh @ 50 μM (Table 3, 50 μM): 4%

CC(C)(CC(=O)O)CC(=O)NCCCCC(C(=O)NCCOCCOCCNC(=O)C(CCCCNC(=O)CC(C)(C)CC(=O)O)N(Cc1ccc(OCc2ccccc2)cc1)Cc1ccc(OCc2ccccc2)cc1)N(Cc1ccc(OCc2ccccc2)cc1)Cc1ccc(OCc2ccccc2)cc1 (centres unmarked) [compound 264]
IC30 μM (Inhibition of EPO binding to EBP-Ig) (0.5 nM [125I]EPO): 1.5 µM
EPO/EBP-Ig % inh @ 50 μM (50 μM compound, Table 13): 89%
% inh @ 50 μM (Inhibition of EPO binding to EBP-Ig) (0.5 nM [125I]EPO): 89%
IC50 [2]: 8 µM

O=C(O)C(F)(F)F.O=C(O)[C@H](CO)N(C/C=C/c1cccc(Oc2cccc(C(F)(F)F)c2)c1)C/C=C/c1cccc(Oc2cccc(C(F)(F)F)c2)c1 [compound 308]
EPO/EBP-Ig % inh @ 50 μM (50 μM compound, Table 16A): 25%

O=C(NCCCCC(C(=O)OCc1ccccc1)N(CC=Cc1cccs1)CC=Cc1cccs1)OCc1ccccc1 (centres unmarked) [compound 57]
EPO/EBP-Ig % inh @ 50 μM (Table 3, 50 μM): 0%

NCCCCC(C(=O)O)N(Cc1cccc(Oc2ccccc2)c1)C(=O)C=Cc1cccc(OCc2ccccc2)c1 (centres unmarked) [compound 286]
IC30 μM (Inhibition of EPO binding to EBP-Ig) (0.5 nM [125I]EPO): 35 µM
inhibition at 50 µM [1]: 46%
inhibition at 50 µM (read-out: EPO/EBP-Ig % inh @ 50 μM, 50 μM compound, Table 15): 46%
IC50 [2]: 65 µM

O=C(O)CC(C(=O)O)N(Cc1cccc(NCc2cccc(Cl)c2)c1)Cc1cccc(Oc2ccccc2)c1 (centres unmarked) [compound 66]
EPO/EBP-Ig % inh @ 50 μM (Table 4, 50 μM): −16%

COC(=O)[C@H](COC(C)(C)C)NC/C=C/c1cccc(Oc2ccc(Cl)c(Cl)c2)c1 [compound 354]
EPO/EBP-Ig % inh @ 50 μM (50 μM compound, Table 20A): 31%

O=C(O)CCC(=O)NCCCCC(C(=O)NCCCOCCOCCOCCCNC(=O)C(CCCCNC(=O)CCC(=O)O)N(Cc1ccc(OCc2ccccc2)cc1)Cc1ccc(OCc2ccccc2)cc1)N(Cc1ccc(OCc2ccccc2)cc1)Cc1ccc(OCc2ccccc2)cc1 (centres unmarked) [compound 271]
IC30 μM (Inhibition of EPO binding to EBP-Ig) (0.5 nM [125I]EPO): 2 µM
EPO/EBP-Ig % inh @ 50 μM (50 μM compound, Table 13): 77%
% inh @ 50 μM (Inhibition of EPO binding to EBP-Ig) (0.5 nM [125I]EPO): 77%
IC50 [2]: 7 µM

O=C(O)C(F)(F)F.O=C(O)CC[C@H](NC/C=C/c1cccc(Oc2ccc(Cl)c(Cl)c2)c1)C(=O)O [compound 332]
EPO/EBP-Ig % inh @ 50 μM (50 μM compound, Table 19A): 17%

O=C(O)CCC(C(=O)O)N(C/C=C/c1cccc(Oc2cccc(C(F)(F)F)c2)c1)C/C=C/c1cccc(Oc2cccc(C(F)(F)F)c2)c1 (centres unmarked) [compound 105]
IC50: 35 µM
IC30 μM (Inhibition of EPO binding to EBP-Ig) (0.5 nM [125I]EPO): 25 µM
inhibition at 50 µM [1]: 70%
inhibition at 50 µM (read-out: EPO/EBP-Ig % inh @ 50 μM, Table 6, 50 μM): 70%

COC(=O)C(CCC(=O)OC(C)(C)C)N(CC=Cc1cccs1)CC=Cc1cccs1 (centres unmarked) [compound 59]
EPO/EBP-Ig % inh @ 50 μM (Table 3, 50 μM): 26%

NCCCCC(C(=O)O)N(CC=Cc1cccs1)CC=Cc1cccs1 (centres unmarked) [cpd 50]
EPO/EBP-Ig % inh @ 50 μM (Table 3, 50 μM): −6%

COc1cccc(CCNC(=O)C(CCCCN)N(C/C=C/c2ccc([N+](=O)[O-])cc2)C/C=C/c2ccc([N+](=O)[O-])cc2)c1 (centres unmarked) [compound 233]
EPO/EBP-Ig % inh @ 50 μM (50 μM compound, Table 10): 18%

O=C(O)CCC(C(=O)O)N(C/C=C/c1ccc(NC(=O)C(F)(F)C(F)(F)F)cc1)Cc1ccc(OCc2ccccc2)cc1 (centres unmarked) [compound 84]
EPO/EBP-Ig % inh @ 50 μM (Table 5, 50 μM): 14%

Cc1ccc(Oc2cccc(CN(Cc3cccc(NCc4cccc(C#N)c4)c3)C(CC(=O)O)C(=O)O)c2)cc1 (centres unmarked) [compound 74]
EPO/EBP-Ig % inh @ 50 μM (Table 4, 50 μM): −7%

CC(C)C[C@H](NC/C=C/c1ccc(C(F)(F)F)cc1)C(=O)O.O=C(O)C(F)(F)F [compound 369]
EPO/EBP-Ig % inh @ 50 μM (50 μM compound): 12%
